Source: patent publication US11800867B2, “Methods of repelling biting arthropods, reducing pathogen spread and treating arthropod infestation” (priority 2016, dated 2023)
Where “and” joins values, the source holds several entries; their conditions need not be identical. Equal entries are not always repeated. Entries after “also recorded” stand apart in the source; their conditions may differ.

Legend:
[1] = system: bed bugs (Cimex lectularius); assay: Filter paper choice test of repelling action (Example 6); assay type: in vivo
Procedure: (§1) An in vitro laboratory trial was required to assess the repelling action of nootkatone applied to filter paper against cat fleas (Ctenocephalides felis), deer ticks (Ixodes scapularis), bed bugs (Cimex lectularius), and termites (Reticulitermes flavipes) in a choice test design.
(§2) The sponsor provided a sample of nootkatone (98%), which was diluted in ethanol to a 0.5% concentration. The treatment was applied to filter paper at a rate of 1 mL for a 9 cm filter paper disc, and a rate of 1.9 mL for a 15 cm filter paper disc. A negative control group, consisting of untreated filter paper, was also assessed for comparison purposes.
Bed bugs: Petri dishes (9 cm) were modified by cutting a circular hole in the bottom of a clean petri plate. Fine mesh nylon cloth was fastened to the bottom using adhesive, covering the hole. The petri plate was then inverted, with the screened bottom serving as the top. Treated and untreated filter papers were cut in half and fitted into the new bottom of the test containers. Treated replicates received one half treated and one half untreated filter paper; negative control replicates received only untreated filter paper.
Bed bugs: Bed bugs were placed in the center of each test container and covered with the fine-mesh lid. The containers were kept in darkness at ambient laboratory conditions for 24 hours. At the end of the exposure period, the distribution (on or under each filter paper) of bed bugs was recorded.
The number of insects in each location was converted to a percentage, for which the average and standard error were calculated across all five replicates.
Percent repellency was calculated with the following formula: % repellency=(1−((t/T)/(c/C)))*100 • Where t=number of insects on treated side of treated arena • T=total number of insects in treated arena • c=average number of insects on right side of untreated arenas • C=average total number of insects in untreated arenas

[2] = system: aphids (Schizaphis gramium); assay: Treated filter paper knockdown (KD) and mortality trial (Example 4); assay type: in vivo; conditions: Nootkatone 1% in ethanol on filter paper
Procedure: A laboratory trial was conducted to assess the efficacy of nootkatone applied to filter paper against aphids (Schizaphis gramium), dust mites (Dermatophagoides sp.), termites (Reticulitermes flavipes), deer ticks (Ixodes scapularis), biting midges (Culicoides sp.), fire ants (Solenopsis invicta), and mosquitoes (Aedes aegypti and Culex), in terms of knockdown (KD) and mortality. One concentration (1% in ethanol) of nootkatone was assessed for most species, but three concentrations (0.25%, 0.5%, and 1% in ethanol) were assessed for mosquitoes. A negative control group, consisting of filter paper treated with ethanol, was also assessed for comparison purposes for each species.
Test systems were introduced to treated filter paper, allowed to dry, and then introduced into treatment chamber, where treated arthropods were monitored at intervals up to 72 hours. If 100% mortality was obtained prior to 72 hours, the individual study was halted.
Readings were discontinued if treated mortality reaches […], or control mortality exceeds 20%.

Ae. aegypti mosquitoes = assay: Continuous exposure to treated filter paper, knockdown and mortality (Example 3); assay type: in vivo, Aedes aegypti; conditions: 1% nootkatone in ethanol on filter paper
Procedure: In the following example, the effectiveness of a 1% nootkatone composition in killing Ae. aegypti mosquitoes was determined.
A composition of 1% nootkatone formulated in ethanol was added to filter paper, which was then introduced into a Fluon®-coated container. Ten Ae. aegypti mosquitoes were added to the container and observed at 30 min, 1, 4, and 24 hr. Five replicates were performed. […] An untreated population was observed as a negative control.

Aedes aegypti mosquitoes = assay: Choice design repellency test, treated collagen membrane-covered wells filled with warm blood (Example 1); assay type: in vivo; conditions: 1% nootkatone compositions (ethanol and acetone based); probing recorded during 20 min
Procedure: In the following example, the effectiveness of 1% nootkatone compositions in repelling mosquitoes was determined in comparison with DEET in a choice design test.
Compositions of 1% nootkatone were formulated in either ethanol or acetone and coated onto collagen membrane-covered wells filled with warm blood.
Two hundred and fifty female mosquitoes aged 4-8 days were sucrose deprived for 18 hr and then introduced to the collagen membrane-covered wells. Mosquito probing of the treated collagen membranes was recorded every 2 min during a 20 min period.
Five replicates were performed. A 20% DEET composition was used as a positive control and an ethanol only solution served as a negative control.

[3] = system: deer ticks (Ixodes scapularis); assay: Filter paper choice test of repelling action (Example 6); assay type: in vivo
Procedure: as §1, §2
Deer ticks: Treated and untreated filter papers were cut in half and fitted into the bottom of a 9 cm petri dish. Treated replicates received one half treated and one half untreated filter paper; negative control replicates received untreated filter paper only. The petri dish arenas were then placed on their sides, with the control halves positioned at the lower half and the treated half at the upper half.
Deer ticks: Ticks were introduced, one at a time, to the bottom half of the control (untreated) arena, and monitored to see how long it took them to get to the upper “treated” side of the arena. Ticks were allowed up to three minutes to cross into the upper area of each arena. […] Once a tick had crossed into the upper side of the control arena, it was gently picked up with forceps and placed in the bottom half of the treated arena, and the procedure repeated. Ticks were considered “not repelled” if they crossed onto the treated side of the treated arena within three minutes.
The number of repelled ticks for each replicate was added together, and the average and standard error were calculated across all five replicates. The numbers were divided by the total number of ticks per replicate to obtain the percent repellency.

[4] = 0.5% nootkatone in ethanol on filter paper
[5] = 0.5% nootkatone in ethanol, 24 Hours post introduction, Replicates 1-5
[6] = 0.5% nootkatone in ethanol, 10 ticks per replicate, three minutes, Replicates 1-5

## C=C(C)[C@@H]1CCC2=CC(=O)C[C@@H](C)[C@]2(C)C1 [Nootkatone, nootkatone]
[1]; [4]
  Repellency (conclusion in words): highly repellent
[1]; [5]
  Raw data: number of bed bugs on Treated half of treated arena, per replicate: 0 (4×) and 1
  Raw data: number of bed bugs on Untreated half of treated arena, per replicate: 10 (4×) and 9
[1]; nootkatone (98%) 0.5% in ethanol on filter paper, half treated, half untreated arena, 24 hours
  Calculated percent repellency (average ± SE): 93.9 ± 6.1%
[2]
  Time required for greater than 90% killing: 30 min
[2]; 30 minutes post introduction
  Means Affected: 100.0%
  Means Dead: 100% and 94.0%
  Means KD: 6.0%
Ae. aegypti mosquitoes; after 1 hr
  Knockdown rate after 1 hr relative to 30 min: more than doubled
Ae. aegypti mosquitoes; after 4 hr
  Knockdown rate: greater than 90%
Ae. aegypti mosquitoes; continuous exposure
  Exposure time after which mosquitoes begin to be affected: 30 min
  Exposure time at which knockdown was complete (FIG. 5): < 24 h
Ae. aegypti mosquitoes; continuous exposure 24 hr
  Average percent of mosquitoes affected (FIG. 3): All mosquitoes were affected
Aedes aegypti mosquitoes
  Average repellency compared with 20% DEET (FIG. 2): repellency similar to that of 20% DEET; also recorded: comparable repellency
[3]; [4]
  Repellency (conclusion in words): highly repellent
[3]; [6]
  Raw data: number of ticks Not repelled, per replicate: 0 (3×) and 1 (2×)
  Raw data: number of ticks Repelled, per replicate: 9 (2×) and 10 (3×)
[3]; nootkatone (98%) 0.5% in ethanol on filter paper, treated upper half, up to three minutes to cross
  Calculated percent repellency (average ± SE): 96.0 ± 2.4%
